Measurements reported in patent US20240270741A1 (Cogent Biosciences, Inc., priority 2023, published 2024).

Biological target: FGFR2 (Homo sapiens, UniProt P21802)
Test: FGFR wild type enzyme assay (HTRF KinEASE-TK), FGFR2
Conditions: Enz FGFR2 (nM), FGFR2 wild type enzyme

Sequence of FGFR2 (P21802 399-821 limits assumed): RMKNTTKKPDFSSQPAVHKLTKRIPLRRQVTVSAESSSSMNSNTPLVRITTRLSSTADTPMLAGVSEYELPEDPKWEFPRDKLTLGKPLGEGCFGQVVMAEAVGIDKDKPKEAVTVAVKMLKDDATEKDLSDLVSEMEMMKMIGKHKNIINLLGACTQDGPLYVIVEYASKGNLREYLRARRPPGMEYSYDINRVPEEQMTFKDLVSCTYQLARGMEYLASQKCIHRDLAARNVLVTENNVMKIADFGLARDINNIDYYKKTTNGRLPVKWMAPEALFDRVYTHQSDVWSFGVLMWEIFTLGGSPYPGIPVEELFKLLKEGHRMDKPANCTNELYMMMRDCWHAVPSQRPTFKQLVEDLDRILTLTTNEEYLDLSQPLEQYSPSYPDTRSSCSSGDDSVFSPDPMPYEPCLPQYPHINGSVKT

| IC50 | Structure (SMILES) |
| --- | --- |
| 3 nM | CN[C@]1(C)CC[C@H](n2ncc(-c3cc(Sc4ccc(F)cn4)c4c(C#N)cnn4c3)c2C)CC1 [Example 292, 4-((5-fluoropyridin-2-yl)thio)-6-(5-methyl-1-((1s,4s)-4-methyl-4-(methylamino)cyclohexyl)-1H-pyrazol-4-yl)pyrazolo[1,5-a]pyridine-3-carbonitrile] |
| 1 nM | N#Cc1cnn2cc(-c3cnn([C@H]4CC[C@@H](O)CC4)c3)cc(Sc3ncccc3F)c12 [Example 293, 4-((3-fluoropyridin-2-yl)thio)-6-(1-((1s,4s)-4-hydroxycyclohexyl)-1H-pyrazol-4-yl)pyrazolo[1,5-a]pyridine-3-carbonitrile] |
| 0.5 nM | N#Cc1ccccc1Sc1cc(-c2cnn([C@H]3CC[C@@H](O)CC3)c2)cn2ncc(C#N)c12 [Example 294, 4-((2-cyanophenyl)thio)-6-(1-((1s,4s)-4-hydroxycyclohexyl)-1H-pyrazol-4-yl)pyrazolo[1,5-a]pyridine-3-carbonitrile] |
| 1 nM | CN[C@]1(C)CC[C@H](n2ncc(-c3cc(Sc4ncccc4F)c4c(C#N)cnn4c3)c2C)CC1 [Example 295, 4-((3-fluoropyridin-2-yl)thio)-6-(5-methyl-1-((1s,4s)-4-methyl-4-(methylamino)cylcohexyl)-1H-pyrazol-4-yl)pyrazolo[1,5-a]pyridine-3-carbonitrile] |
| 2 nM | Cc1c(-c2cc(Sc3ncccc3F)c3c(C#N)cnn3c2)cnn1[C@@H]1CC[C@H](O)[C@H](O)C1 [Example 296, 6-(1-((1R,3R,4S)-3,4-dihydroxycyclohexyl)-5-methyl-1H-pyrazol-4-yl)-4-((3-fluoropyridin-2-yl)thio)pyrazolo[1,5-a]pyridine-3-carbonitrile] |
| 0.3 nM | Cc1c(-c2cc(Sc3ccccc3C#N)c3c(C#N)cnn3c2)cnn1[C@H]1CC[C@@](C)(N)CC1 [Example 297, 6-[1-(4-amino-4-methyl-cyclohexyl)-5-methyl-pyrazol-4-yl]-4-(2-cyanophenyl) sulfanylpyrazolo[1,5-a]pyridine-3-carbonitrile] |
| 0.5 nM | CN(C)[C@H]1CC[C@@H](n2cc(-c3cc(Sc4ccccc4C#N)c4c(C#N)cnn4c3)cn2)CC1 [Example 298, 4-((2-cyanophenyl)thio)-6-(1-((1s,4s)-4-(dimethylamino)cyclohex-yl)-1H-pyrazol-4-yl)pyrazolo[1,5-a]pyridine-3-carbonitrile] |
| 1 nM | CC(=O)N[C@H]1CC[C@@H](n2ncc(-c3cc(Sc4ccc(F)cc4C#N)c4c(C#N)cnn4c3)c2C)CC1 [Example 299, N-((1s,4S)-4-(4-(3-cyano-4-((2-cyano-4-fluorophenyl)thio)pyrazolo [1,5-a]pyridin-6-yl)-5-methyl-1H-pyrazol-1-yl)cyclohexyl)acetamide] |
| 1 nM | Cc1c(-c2cc(Sc3ccc(F)cc3C#N)c3c(C#N)cnn3c2)cnn1[C@H]1C[C@H]2CC[C@@H](C1)N2C [Example 300, 4-((2-cyano-4-fluorophenyl)thio)-6-(5-methyl-1-((1R,3r,5S)-8-methyl-8-azabicyclo[3.2.1]octan-3-yl)-1H-pyrazol-4-yl)pyazolo[1,5-a]pyridine-3-carbonitrile] |
| 1 nM | Cc1c(-c2cc(Sc3ccc(F)cc3C#N)c3c(C#N)cnn3c2)cnn1[C@H]1CC[C@H](NC(=O)CO)CC1 [Example 301, N-((1r,4r)-4-(4-(3-cyano-4-((2-cyano-4-fluorophenyl)thio)pyrazolo [1,5-a]pyridin-6-yl)-5-methyl-1H-pyrazol-1-yl)cyclohexyl)-2-hydroxyacetamide] |
| 4 nM | Cc1c(-c2cc(Sc3ccccn3)c3c(C#N)cnn3c2)cnn1[C@H]1CC[C@@H](O)CC1 [Example 302] |
| 6 nM | Cc1nn(C2CCN(C)CC2)c(C)c1-c1cc(Sc2ncccc2F)c2c(C#N)cnn2c1 [Example 303, 6-(3,5-dimethyl-1-(1-methylpiperidin-4-yl)-1H-pyrazol-4-yl)-4-((3-fluoropyridin-2-yl)thio)pyrazolo[1,5-a]pyridine-3-carbontirile] |
